Results published in the supplement of paper PMC10307832.

What was measured:
Assay in all cases: relative viability (nuclei count vs DMSO), 5 days (fraction); higher = more cells survive
[1] = compound: CCn1c(-c2nonc2N)nc2c(C#CC(C)(C)O)ncc(OC[C@H]3CCCNC3)c21 + CC(C)C[C@H](NC(=O)[C@H](Cc1ccccc1)NC(=O)c1cnccn1)B(O)O [Bortezomib] (partner 0.002 µM)
Summary of the method: (§1)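 Relative viability was taken as the ratio of nuclei in treated wells to nuclei in vehicle wells. Lung cancer cell lines in 1536-well plates received compounds by pin tool one day after seeding, either one drug alone or a fixed anchor-drug dose plus five library-drug doses (not always all listed) in √10 steps. Nuclei were counted on 4× images after 5 days of treatment, and values are medians of duplicate plates.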

[2] = compound: CCn1c(-c2nonc2N)nc2c(C#CC(C)(C)O)ncc(OC[C@H]3CCCNC3)c21 + C[C@@H](Oc1cc(-c2cnn(C3CCNCC3)c2)cnc1N)c1c(Cl)ccc(F)c1Cl [Crizotinib] (partner 1 µM)
Summary of the method: as §1

[3] = compound: CCn1c(-c2nonc2N)nc2c(C#CC(C)(C)O)ncc(OC[C@H]3CCCNC3)c21 + Nc1ncn([C@H]2C[C@H](O)[C@@H](CO)O2)c(=O)n1 [Decitabine] (partner 2 µM)
Summary of the method: as §1

[4] = compound: CCn1c(-c2nonc2N)nc2c(C#CC(C)(C)O)ncc(OC[C@H]3CCCNC3)c21 + O=C(c1cc(Cc2n[nH]c(=O)c3ccccc23)ccc1F)N1CCN(C(=O)C2CC2)CC1 [Olaparib] (partner 8 µM)
Summary of the method: as §1

## UMC-11
[1]; first compound 0.01 µM
  relative viability: 0.676
[1]; first compound 0.03162 µM
  relative viability: 0.905
[1]; first compound 0.1 µM
  relative viability: 0.833
[1]; first compound 0.3162 µM
  relative viability: 0.48
[1]; first compound 1 µM
  relative viability: 0.661
[2]; first compound 0.01 µM
  relative viability: 0.704
[2]; first compound 0.03162 µM
  relative viability: 0.695
[2]; first compound 0.1 µM
  relative viability: 0.65
[2]; first compound 0.3162 µM
  relative viability: 0.645
[2]; first compound 1 µM
  relative viability: 0.547
[3]; first compound 0.01 µM
  relative viability: 0.533
[3]; first compound 0.03162 µM
  relative viability: 0.46
[3]; first compound 0.1 µM
  relative viability: 0.6
[3]; first compound 0.3162 µM
  relative viability: 0.686
[3]; first compound 1 µM
  relative viability: 0.607
[4]; first compound 0.01 µM
  relative viability: 0.402
[4]; first compound 0.03162 µM
  relative viability: 0.391
[4]; first compound 0.1 µM
  relative viability: 0.655
[4]; first compound 0.3162 µM
  relative viability: 0.392
[4]; first compound 1 µM
  relative viability: 0.359
